Experimental data from patent publication US6794378B2, “Heterocyclic compounds and medical use thereof” (Ajinomoto Co., Inc., priority 1999, dated 2004).
Values after ≈ are worked out from the molar mass of the structure shown.

Assays:
[1] = test system: NF-kappa B transcriptional activity; assay: Evaluation of the NF-kappa B inhibition (β-gal reporter in immortalized HUVEC, IL-1 β induced); assay type: cell-based; details: Homo sapiens; HUVEC NF-kappaB β-gal reporter cells; IL-1 β induction; β-gal activity determined 16 hours after; read-out: NFkB inhibition activity IC50
Method: Evaluation of the NF-kappa B Inhibition
Cells used for the tests were those prepared by stably introducing E. coli β-galactosidase (β-gal) genes driven by SV 40 minimum promoter fused with 6 tandems of the NF-KappaB binding motif derived from immunoglobulin kappa light chain enhancer into human normal umbilical cord vein endothelial cells (HUVEC) immortalized with SV 40 large T antigen. The cells were subcultured in RPMI medium containing 10% of FBS, and were seeded on a 96-well plate in a concentration of 1×10^4/well on a day before the start of the experiments. A compound of the present invention was dissolved in DMSO to obtain a solution of a proper concentration, which was added into the 96-well plate so that the final DMSO concentration would be not higher than 1%. 30 minutes after the addition of the compound, in order to induce NF-kappa B transcriptional activity, […] of IL-1 β was added to each well so as to obtain the final concentration of […]. β-gal activity was determined 16 hours after with a chemiluminescent substrate (Galacton-Light-Plus: Boehringer Mannheim) according to a protocol attached to the reagent. A Luminescence detector (ATTO) was used for the determination.

anti-TTx antibody titer = assay: Antibody titer inhibition test (TTx-sensitized monkeys, ELISA); assay type: in vivo; details: Rhesus monkeys, 50 mg/kg orally twice daily for 4 weeks from TTx sensitization
Method: (§1) An antibody titer inhibition test and a delayed-type hypersensitivity reaction inhibition test
(§2) Rhesus monkeys (female, aged four to six) subjected to the test were sensitized with 6Lf of TTx (Tetanus Toxoid) both in the back skin and in the femur muscle under anesthesia by an intramuscular injection of ketamine. The subject drug at the dose of 50 mg/kg had been administered twice daily (7:00 am and 7:00 pm) for 4 weeks starting at the day of TTx sensitization. The drug was suspended with 0.5% Tween 80 solution and was orally administered using a gastric catheter. The control animals were administered with the vehicle in the same manner as those for the test article. One ml of blood was drawn from femoral vein of each animal twice a week to obtain sera with which the anti-TTx antibody titer was evaluated by the ELISA method. The antibody titer was determined with OD of serially-diluted serum from 1:100 by 2 times and was defined as the degree of dilution reaching to “an average OD of the antibody before immunization+2×SD”. One hour after the final administration in the morning on day 28, TTx was challenged once in the thoracic skin (10, 3, 1, 0.3, 0.1, 0.03 Lf/ml, 10 μl/site), and skin reactions at the injection sites were observed 24 and 48 hours after the TTx challenge. The delayed-type hypersensitivity reaction was scored according to the Draize dermal test criteria.

[2] = test system: delayed-type hypersensitivity reaction; assay: Delayed-type hypersensitivity reaction inhibition test (TTx challenge in thoracic skin); assay type: in vivo; details: Rhesus monkeys, 50 mg/kg orally twice daily for 4 weeks; TTx challenge day 28, skin reactions 24 and 48 hours after, Draize criteria
Method: as §1, §2

| Structure (SMILES) | IC50 [1] [µg/mL] | inhibiting effect on anti-TTx antibody titer (anti-TTx antibody titer) | inhibiting effect on delayed-type hypersensitivity reaction [2] |
| --- | --- | --- | --- |
| CC1(C)CC1C(=O)Nc1ccc(Oc2ccc(NC(=O)C3CC3(C)C)cn2)cc1 (stereo not shown) [Example 1] | 0.5 (≈ 1.27 µM) | – | – |
| CC1(C)CC1C(=O)Nc1ccc(Sc2ccc(NC(=O)C3CC3(C)C)cn2)cc1 (stereo not shown) [Example 2] | 0.3 (≈ 0.733 µM) | – | – |
| CC1(C)CC1C(=O)Nc1ccc(Nc2ccc(NC(=O)C3CC3(C)C)cn2)cc1 (stereo not shown) [Example 3] | 0.8 (≈ 2.04 µM) | – | – |
| CC1(C)CC1C(=O)Nc1ccc(C(O)c2ccc(NC(=O)C3CC3(C)C)nc2)cc1 (stereo not shown) [Example 4] | 1 (≈ 2.45 µM) | – | – |
| CC1(C)CC1C(=O)Nc1ccc(Cc2ccc(NC(=O)C3CC3(C)C)nc2)cc1 (stereo not shown) [Example 5] | 0.9 (≈ 2.3 µM) | – | – |
| CC1(C)CC1C(=O)Nc1ccc(C(O)c2ccc(NC(=O)C3CC3(C)C)cn2)cc1 (stereo not shown) [Example 6] | 0.4 (≈ 0.982 µM) | – | – |
| CC1(C)CC1C(=O)Nc1ccc(Cc2ccc(NC(=O)C3CC3(C)C)cn2)cc1 (stereo not shown) [Example 7] | 1.5 (≈ 3.83 µM) | – | – |
| CC1(C)CC1C(=O)Nc1ccc(Oc2ccc(NC(=O)C3CC3(C)C)nn2)cc1 (stereo not shown) [Example 8] | 1.5 (≈ 3.8 µM) | – | – |
| CC1(C)CC1C(=O)Nc1ccc(Nc2ncc(NC(=O)C3CC3(C)C)cn2)cc1 (stereo not shown) [Example 9] | 0.7 (≈ 1.78 µM) | – | – |
| CC1(C)CC1C(=O)Nc1ccc(CSc2ccc(NC(=O)C3CC3(C)C)cn2)cc1 (stereo not shown) [Example 14] | 0.015 (≈ 0.0354 µM) | – | – |
| Cc1cc(Oc2ccc(NC(=O)C3CC3(C)C)cn2)ccc1NC(=O)C1CC1(C)C (stereo not shown) [Example 22] | 0.15 (≈ 0.368 µM) | – | – |
| O=C(Nc1ccc(Oc2ccc(NC(=O)C3CC3(Cl)Cl)cn2)cc1)C1CC1(Cl)Cl (stereo not shown) [Example 26] | 0.15 (≈ 0.316 µM) | – | – |
| CC1CCCCC1C(=O)Nc1ccc(Oc2ccc(NC(=O)C3CCCCC3C)cn2)cc1 (stereo not shown) [Example 29] | 1 (≈ 2.22 µM) | – | – |
| CC1(C)CC1C(=O)Nc1ccc(Oc2ccc(NC(=O)c3ccccc3)cc2)nc1 (stereo not shown) [Example 31] | 1.5 (≈ 3.74 µM) | – | – |
| CC1(C)CC1C(=O)Nc1ccc(Oc2ccc(NC(=O)Cc3ccccc3)cc2)nc1 (stereo not shown) [Example 32] | 0.1 (≈ 0.241 µM) | – | – |
| CC1(C)CC1C(=O)Nc1ccc(Oc2ccc(NC(=O)Cc3ccc(Cl)cc3)cc2)nc1 (stereo not shown) [Example 33] | 0.2 (≈ 0.445 µM) | – | – |
| COc1ccc(CC(=O)Nc2ccc(Oc3ccc(NC(=O)C4CC4(C)C)cn3)cc2)cc1 (stereo not shown) [Example 34] | 0.3 (≈ 0.673 µM) | – | – |
| CC1(C)CC1C(=O)Nc1ccc(Oc2ccc(NC(=O)CCCc3ccccc3)cc2)nc1 (stereo not shown) [Example 37] | 0.09 (≈ 0.203 µM) | – | – |
| CC1(C)CC1C(=O)Nc1ccc(Oc2ccc(NCCc3ccccc3)cc2)nc1 (stereo not shown) [Example 38] | 0.05 (≈ 0.125 µM) | – | – |
| CC1(C)CC1C(=O)Nc1ccc(Oc2ccc(NCCCc3ccccc3)cc2)nc1 (stereo not shown) [Example 39] | 0.035 (≈ 0.0842 µM) | – | – |
| CC1(C)C[C@@H]1C(=O)Nc1ccc(Oc2ccc(NC(=O)[C@H]3CC3(C)C)cn2)cc1 [Example 43] | 0.25 (≈ 0.635 µM) | exhibited its inhibiting effect | exhibited its inhibiting effect |
| CC1(C)C[C@@H]1C(=O)Nc1ccc(Oc2ccc(NC(=O)[C@@H]3CC3(C)C)cc2)nc1 [Example 44] | 0.1 (≈ 0.254 µM) | – | – |
| CC1(C)C[C@@H]1C(=O)Nc1ccc(Oc2ccc(NC(=O)[C@@H]3CC3(C)C)cn2)cc1 [Example 45] | 1 (≈ 2.54 µM) | – | – |
